For one assay, the target named is T1, recombinant Aurora A (Homo sapiens, UniProt O14965).
T1 construct: purchased Upstate, Lake Placid, N.Y
T1 sequence (O14965 1-403): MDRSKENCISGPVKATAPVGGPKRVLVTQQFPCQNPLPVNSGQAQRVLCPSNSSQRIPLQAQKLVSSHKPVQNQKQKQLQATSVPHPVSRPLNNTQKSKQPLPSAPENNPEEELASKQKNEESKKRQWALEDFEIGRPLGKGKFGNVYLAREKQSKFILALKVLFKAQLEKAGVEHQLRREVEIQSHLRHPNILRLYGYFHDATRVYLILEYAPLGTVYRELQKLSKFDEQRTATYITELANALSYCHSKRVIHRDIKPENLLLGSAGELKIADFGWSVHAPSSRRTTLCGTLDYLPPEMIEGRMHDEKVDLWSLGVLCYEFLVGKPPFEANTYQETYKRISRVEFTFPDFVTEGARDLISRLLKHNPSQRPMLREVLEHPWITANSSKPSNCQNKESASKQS
The assay can be described thus: Aurora A (Aurora 2) Inhibition Assay (Z'-Lyte). The class given is biochemical. The note with it: 100 μM compound; ATP 10 μM; 1 h. The method, then: Compounds were tested for their potency against recombinant Aurora A (Upstate, Lake Placid, N.Y.) using the PanVera Z'-Lyte kinase assay kit-Ser/[…] peptide (Invitrogen, Carlsbad, Calif.). […] Assays were carried out in half-area 96-well white polystyrene assay plates (Corning, Corning, N.Y.) in a final volume of 20 μl. The reaction was allowed to proceed for 1 h at room temperature in the dark, at which point the development reagent and stop reagent were added according to the manufacturer's instructions. Coumarin (Ex. 400 nm, Em. 465 nm) and fluorescein (Ex. 400 nm, Em. 565 nm) fluorescence values were measured on a SpectraFluor Plus plate reader (Tecan, Durham, N.C.). The emission ratio (coumarin/fluorescein) was determined and used to calculate the percent phosphorylation for each well. […] Typically 20-40% of the substrate was phosphorylated in wells without inhibitor. Dose-response curves of relative Aurora A activity vs. inhibitor concentration were plotted with Grafit (Erithacus Software, Horley, Surrey, UK).

The next assay deals with T2, Aurora B kinase (Homo sapiens, UniProt Q96GD4).
T2 construct: purchased BPS Biosciences, San Diego, Calif
The assay can be described thus: Aurora B (Aurora 1) Inhibition Assay. Type of assay: biochemical. The settings on record: 100 μM compound; ATP 50 μM; 16 h. The method, then:
Assays for Aurora B kinase inhibition were carried out similarly to those for Aurora A kinase (see above) with the following modifications. Aurora B kinase (BPS Biosciences, San Diego, Calif.) was used as the enzyme, at a concentration was 2.5 μg/mL. The ATP concentration was 50 μM, and the kinase reaction was allowed to proceed for 16 h. Sodium orthovanadate (20 μM) was added to the buffer to inhibit contaminating phosphatases.

A further assay concerns HCT-116 cell growth. Kind of assay: Whole Cell Cytotoxicity Assay: Sulforhodamine B. Type of assay: cell-based, Human. The note with it: Homo sapiens, HCT-116; 100 μM compound; 96 hours; SRB staining. The method, then:
Human tumor-derived cell lines, HCT116 or MCF7 (ATCC) were plated in a 96 well plate in DMEM containing 10% fetal bovine serum and 2 mM L-glutamine at a density of 500 HCT116 cells or 1,000 MCF7 cells per well and incubated at 37° C., 5% CO2, for 24 hours prior to the addition of experimental compounds. Compounds were added using the dilution series indicated to duplicate plates and the cells were incubated in media plus compound for 96 hours. An additional plate was fixed in 10% TCA at the time of the addition of compound to provide a measurement of the cell population at time zero, the time of drug addition. Following the 96 hour incubation, cells were fixed in situ by gently aspirating off the culture media and then adding 50 ul of ice cold 10% TCA per well and incubation at 4° C. for 60 minutes. The plates were washed with tap water five times and allowed to air dry for 5 minute. 50 ul of a 0.4% (w/v) Sulforhodamine B solution in 1% (v/v) acetic acid was added per well and the cells were incubated for 30 minutes at room temperature. Following staining, plates were washed four times with 1% acetic acid to remove any unbound dye and then allowed to air dry for 5 minutes. The stain was solubilized with 100 ul of 10 mM Tris pH 10.5 per well and placed on an orbital rotator for 5 minutes. The absorbance was read at 570 nm. Percentage growth was calculated using the absorbance readings from the time zero plate (Tz) and the dilution series plate […] which included a column of cells grown in media without compound as a control (C) using the formulas: [(Ti−Tz)/(C−Tz)]×100 for concentrations for which Ti>/=Tz [(Ti−Tz)/Tz]×100 for concentrations for which Ti<Tz.
Three dose response parameters were calculated for each experimental agent. Growth inhibition of 50% (GI50) was calculated from [(Ti−Tz)/(C−Tz)]×100=50, which was the drug concentration resulting in a 50% reduction in the net protein increase (as measured by SRB staining) in control cells during the drug incubation. The drug concentration resulting in total growth inhibition (TGI) was calculated from Ti=Tz. The LC50 (concentration of drug resulting in a 50% reduction in the measured protein at the end of the drug treatment as compared to that at the beginning) indicating a net loss of cells following treatment was calculated from [(Ti−Tz)/Tz]×100=−50. Values are calculated for each of these three parameters if the level of activity was reached; however, if the effect was not reached or was exceeded, the value for that parameter is expressed as greater or less than the maximum or minimum concentration tested.
In general terms: The SRB assay estimates cell density from bound dye.

In patent US7563787B2, “Substituted pyrazole compounds” (Miikana Therapeutics, Inc., priority 2005, dated 2009) one finds inhibition data, which are given here for two compounds.

Each structure is given as a SMILES string.

T2 sequence (Q96GD4 whole entry): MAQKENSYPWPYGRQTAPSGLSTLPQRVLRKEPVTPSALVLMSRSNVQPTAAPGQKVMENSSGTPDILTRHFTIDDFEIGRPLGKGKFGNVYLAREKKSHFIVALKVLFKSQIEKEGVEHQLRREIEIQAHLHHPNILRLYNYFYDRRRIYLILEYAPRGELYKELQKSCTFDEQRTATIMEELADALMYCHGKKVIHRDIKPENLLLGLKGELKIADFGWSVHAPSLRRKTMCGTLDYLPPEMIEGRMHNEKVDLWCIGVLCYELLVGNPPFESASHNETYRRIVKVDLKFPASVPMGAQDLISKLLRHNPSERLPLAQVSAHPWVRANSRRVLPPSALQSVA

Take `COCCNc1cc(Nc2cc(C)[nH]n2)nc(/C=C/c2ccccc2)n1` [Example 163, N^4-(2-methoxyethyl)-N^6-(5methyl-1H-pyrazol-3-yl)-2-styrylpyrimidine-4,6-diamine]: the inhibition at 100 µM stood at 100% at recombinant Aurora A, 100% at Aurora B kinase and 98% in the assay on HCT-116 cell growth.
For the compound `Cc1cc(Nc2cc(NCC3CCCO3)nc(/C=C/c3ccccc3)n2)n[nH]1` (stereo not drawn) [Example 164, N^4-((tetrahydrofuran-2-yl)methyl)-N^6-(5-methyl-1H-pyrazol-3-yl)-2-styrylpyrimidine-4,6-diamine], the inhibition at 100 µM at recombinant Aurora A stood at 100%; against Aurora B kinase it was 100%; in the assay on HCT-116 cell growth, 96%.

For orientation: inhibition means the drop in the measured response relative to a control, in per cent.
